The target of one test is T1, GST-RORγ (Homo sapiens, UniProt P51449).
T1 construct: 1 μg of GST-RORγ-LBD, 5 nM of [3H]T1317 as radioligand
T1 sequence (P51449 269-508 limits assumed): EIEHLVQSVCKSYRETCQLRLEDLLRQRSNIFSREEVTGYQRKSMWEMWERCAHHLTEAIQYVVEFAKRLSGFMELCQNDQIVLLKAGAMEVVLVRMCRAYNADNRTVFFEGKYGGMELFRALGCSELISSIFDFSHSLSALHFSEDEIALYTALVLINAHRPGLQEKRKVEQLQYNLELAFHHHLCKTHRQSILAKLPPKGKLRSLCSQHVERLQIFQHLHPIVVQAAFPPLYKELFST
Briefly: RORγ scintillation proximity (SPA) radioligand binding assay, displacement of [3H]-T0901317. The note with it: for IC50: displacement of 5 nM [3H]-T0901317 from GST-RORγ; for remaining activity at 10 µM: 10 μM compound, read-out: RORγ SPA % bound = % radiolabel bound. For orientation: In a scintillation proximity assay essentially only radioactivity close to the scintillant gives light.

For another test, the target named is T2, RORα (Homo sapiens, UniProt P35398).
T2 construct: expressed in transfected cells; host or cells: HEK293T
T2 sequence (P35398 272-510 limits assumed): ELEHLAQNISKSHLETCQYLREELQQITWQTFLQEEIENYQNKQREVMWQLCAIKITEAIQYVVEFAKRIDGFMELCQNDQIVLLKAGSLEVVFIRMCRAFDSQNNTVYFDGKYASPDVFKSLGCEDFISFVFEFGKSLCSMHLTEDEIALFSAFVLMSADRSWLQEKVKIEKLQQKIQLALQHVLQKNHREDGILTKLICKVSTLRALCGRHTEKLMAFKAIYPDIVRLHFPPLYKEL
Briefly: Gal4-RORα LBD / UAS luciferase cotransfection assay. Type of test: cell-based. The note with it: 10 μM.

In the next test the target is T3, RORγ (Homo sapiens, UniProt P51449).
T3 construct: expressed in transfected cells; host or cells: HEK293T
T3 sequence (P51449 269-508 limits assumed): T1 sequence (P51449 269-508 limits assumed)
Briefly: Gal4-RORγ LBD / UAS luciferase cotransfection assay. It is filed as cell-based. The note with it: for RORγ repression, fold change over DMSO: 10 μM.

Another test deals with VP16. Kind of test: Gal4 DBD-VP16 / UAS luciferase control assay. It is filed as cell-based. The note with it: 10 μM.
Another test concerns the target T4, LXR (Homo sapiens, UniProt Q13133).
T4 sequence (Q13133 209-447 limits assumed): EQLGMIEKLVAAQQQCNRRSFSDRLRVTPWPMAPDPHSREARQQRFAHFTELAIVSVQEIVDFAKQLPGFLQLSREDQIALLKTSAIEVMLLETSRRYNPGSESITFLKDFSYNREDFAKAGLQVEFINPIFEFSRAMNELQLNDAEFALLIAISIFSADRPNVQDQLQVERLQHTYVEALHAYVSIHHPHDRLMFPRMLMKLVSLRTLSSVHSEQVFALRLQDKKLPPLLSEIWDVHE
Briefly: Gal4-LXRα / UAS luciferase cotransfection assay. It is filed as cell-based. Particulars: 10 μM.

Broadly, the IC50 is the concentration at which inhibition is half-maximal. Low values mean greater potency in that assay, high ones weaker potency in that assay.

Procedure for VP16: The cells were treated with either DMSO or various compounds as indicated four hours after replating. Following additional 20 hour incubation, luciferase levels were assayed by one-step addition of 20 μL BriteLite (Perkin Elmer) and read using an Envision multilabel plate reader (Perkin Elmer).

Take `OC(c1ccc(-c2ccc(CN3CCN(Cc4ccncc4)CC3)cc2)cc1)(C(F)(F)F)C(F)(F)F` [Compound 1, 1,1,1,3,3,3-Hexafluoro-2-(4′-((4-(pyridin-4-ylmethyl)piperazin-1-yl)methyl)-[1,1′-biphenyl]-4-yl)propan-2-ol]: the IC50 turned out to be 0.15 µM at GST-RORγ and 0.4 µM against RORγ (Gal4 cotransfection). Also, the “RORα repression, fold change over DMSO” value at RORα is reported as 1 fold change over DMSO. Besides, the “VP16 repression, fold change over DMSO” value with VP16 is reported as 1 fold change over DMSO. At LXR, the “LXR activation, fold change over DMSO” value stood at 1 fold change over DMSO.
With `OC(c1ccc(-c2ccc(CN3CCN(C4CC4)CC3)cc2)cc1)(C(F)(F)F)C(F)(F)F` [Compound 17, 2-(4′-((4-Cyclopropylpiperazin-1-yl)methyl)-[1,1′-biphenyl]-4-yl)-1,1,1,3,3,3-hexafluoropropan-2-ol], at GST-RORγ, the remaining activity at 10 µM worked out at 20%. Moreover, the “RORα repression, fold change over DMSO” value at RORα came out at 0.55 fold change over DMSO. Moreover, the “RORγ repression, fold change over DMSO” value at RORγ is given as 0.25 fold change over DMSO. For the same compound, the “VP16 repression, fold change over DMSO” value in the test with VP16 is 0.4 fold change over DMSO. In addition, the “LXR activation, fold change over DMSO” value on LXR came to 0.75 fold change over DMSO.
The compound `OC(c1ccc(-c2ccc(CN3CCN(Cc4ccncc4Br)CC3)cc2)cc1)(C(F)(F)F)C(F)(F)F` [Compound 59, 2-(4′-((4-((3-Bromopyridin-4-yl)methyl)piperazin-1-yl)methyl)-[1,1′-biphenyl]-4-yl)-1,1,1,3,3,3-hexafluoropropan-2-ol] displayed an IC50 on GST-RORγ of 1.1 µM. Moreover, the “RORα repression, fold change over DMSO” value on RORα was 0.4 fold change over DMSO. In addition, the “RORγ repression, fold change over DMSO” value on RORγ worked out at 0.05 fold change over DMSO. Further, the “VP16 repression, fold change over DMSO” value in the test with VP16 was found to be 0.4 fold change over DMSO. The “LXR activation, fold change over DMSO” value at LXR is given as 4 fold change over DMSO.
On to `OC(c1ccc(-c2ccc(CN3CCC(Cc4ccc5c(c4)OCO5)CC3)cc2)cc1)(C(F)(F)F)C(F)(F)F` [Compound 88, 2-(4′-((4-(Benzo[d][1.3]dioxol-5-ylmethyl)piperidin-1-yl)methyl)-[1,1′-biphenyl]-4-yl)-1,1,1,3,3,3-hexafluoropropan-2-ol], for which the remaining activity at 10 µM at GST-RORγ amounted to 35%. In addition, the “RORα repression, fold change over DMSO” value at RORα was 0.6 fold change over DMSO. Moreover, the “RORγ repression, fold change over DMSO” value on RORγ is on record as 0.2 fold change over DMSO. Moreover, the “VP16 repression, fold change over DMSO” value in the test with VP16 stood at 0.3 fold change over DMSO. Besides, the “LXR activation, fold change over DMSO” value on LXR stood at 1.3 fold change over DMSO.
In the same order, the values of `OC(c1ccc(-c2ccc(CN3CCN(Cc4ccncc4Cl)CC3)cc2)cc1)(C(F)(F)F)C(F)(F)F` [Compound 92] are 25%, 0.7 fold change over DMSO, 0.1 fold change over DMSO, 0.6 fold change over DMSO and 5 fold change over DMSO.
As to `OC(c1ccc(-c2ccc(CN3CCN(Cc4ccncc4)CC3)c(Cl)c2)cc1)(C(F)(F)F)C(F)(F)F` [Compound 93, 2-(3′-Chloro-4′-((4-(pyridin-4-ylmethyl)piperazin-1-yl)methyl)-[1,1′-biphenyl]-4-yl)-1,1,1,3,3,3-hexafluoropropan-2-ol], the “RORα repression, fold change over DMSO” value at RORα was 0.4 fold change over DMSO. Moreover, the “RORγ repression, fold change over DMSO” value at RORγ is given as 0.05 fold change over DMSO. In the test on VP16, the “VP16 repression, fold change over DMSO” value is reported as 0.7 fold change over DMSO. Also, the “LXR activation, fold change over DMSO” value on LXR is given as 1.5 fold change over DMSO.
The compound `Cc1cc(-c2ccc(C(O)(C(F)(F)F)C(F)(F)F)cc2)ccc1CN1CCN(Cc2ccncc2)CC1` [Compound 94, 1,1,1,3,3,3-Hexafluoro-2-(3′-methyl-4′-((4-(pyridin-4-ylmethyl)piperazin-1-yl)methyl)-[1,1′-biphenyl]-4-yl)propan-2-ol] yielded an IC50 at GST-RORγ of 0.23 µM. For the same compound, on RORα, the “RORα repression, fold change over DMSO” value stood at 0.5 fold change over DMSO. For the same compound, the “RORγ repression, fold change over DMSO” value on RORγ is 0.05 fold change over DMSO. Besides, the “VP16 repression, fold change over DMSO” value with VP16 is reported as 0.8 fold change over DMSO. In addition, at LXR, the “LXR activation, fold change over DMSO” value is 0.8 fold change over DMSO.
`OC(c1ccc(-c2ccc(CN3CCN(Cc4ccncc4)CC3)cc2F)cc1)(C(F)(F)F)C(F)(F)F` [Compound 95, 1,1,1,3,3,3-Hexafluoro-2-(2′-fluoro-4′-((4-(pyridin-4-ylmethyl)piperazin-1-yl)methyl)-[1,1′-biphenyl]-4-yl)propan-2-ol]: the “RORα repression, fold change over DMSO” value at RORα stood at 0.5 fold change over DMSO. Also, the “RORγ repression, fold change over DMSO” value at RORγ was found to be 0.05 fold change over DMSO. Moreover, the “VP16 repression, fold change over DMSO” value in the test on VP16 stood at 0.7 fold change over DMSO. Also, the “LXR activation, fold change over DMSO” value at LXR was 5 fold change over DMSO.
At GST-RORγ, `COc1cc(-c2ccc(C(O)(C(F)(F)F)C(F)(F)F)cc2)ccc1CN1CCN(Cc2ccncc2)CC1` [Compound 97, 1,1,1,3,3,3-Hexafluoro-2-(3′-methoxy-4′-((4-(pyridin-4-ylmethyl)piperazin-1-yl)methyl)-[1,1′-biphenyl]-4-yl)propan-2-ol] had an IC50 of 1.5 µM. In addition, the “RORα repression, fold change over DMSO” value on RORα was 0.5 fold change over DMSO. The “RORγ repression, fold change over DMSO” value on RORγ worked out at 0.05 fold change over DMSO. Further, in the test with VP16, the “VP16 repression, fold change over DMSO” value came out at 0.5 fold change over DMSO. In addition, the “LXR activation, fold change over DMSO” value at LXR amounted to 1 fold change over DMSO.
With `OC(c1ccc(-c2ccc(CN3CCN(Cc4ccncc4)CC3)c(F)c2)cc1)(C(F)(F)F)C(F)(F)F` [Compound 98, 1,1,1,3,3,3-Hexafluoro-2-(3′-fluoro-4′-((4-(pyridin-4-ylmethyl)piperazin-1-yl)methyl)-[1,1′-biphenyl]-4-yl)propan-2-ol], the IC50 at GST-RORγ amounted to 1.5 µM. The “RORα repression, fold change over DMSO” value on RORα is 0.8 fold change over DMSO. The “RORγ repression, fold change over DMSO” value on RORγ worked out at 0.05 fold change over DMSO. For the same compound, the “VP16 repression, fold change over DMSO” value in the test on VP16 is 0.65 fold change over DMSO. The “LXR activation, fold change over DMSO” value at LXR worked out at 2 fold change over DMSO.
For the compound `O=C(c1ccc(-c2ccc(C(O)(C(F)(F)F)C(F)(F)F)cc2)cc1)N1CCN(Cc2ccncc2)CC1` [Compound 100, (4′-(1,1,1,3,3,3-Hexafluoro-2-hydroxypropan-2-yl)-[1,1′-biphenyl]-4-yl)(4-(pyridin-4-ylmethyl)piperazin-1-yl)methanone], the 50% inhibitory concentration (IC50) on GST-RORγ is 1.7 µM. Besides, on RORα, the “RORα repression, fold change over DMSO” value amounted to 0.6 fold change over DMSO. For the same compound, the “RORγ repression, fold change over DMSO” value at RORγ amounted to 0.1 fold change over DMSO. Also, the “VP16 repression, fold change over DMSO” value with VP16 turned out to be 0.4 fold change over DMSO. Further, on LXR, the “LXR activation, fold change over DMSO” value came to 0.8 fold change over DMSO.
On to `OC(c1ccc(-c2ccc(CN3CCN(Cc4c(F)cncc4F)CC3)cc2)cc1)(C(F)(F)F)C(F)(F)F` [Compound 101, 2-(4′-((4-((3,5-Difluoropyridin-4-yl)methyl)piperazin-1-yl)methyl)-[1,1′-biphenyl]-4-yl)-1,1,1,3,3,3-hexafluoropropan-2-ol], for which, on RORα, the “RORα repression, fold change over DMSO” value is 0.8 fold change over DMSO. Further, the “RORγ repression, fold change over DMSO” value at RORγ is 0.15 fold change over DMSO. For the same compound, in the test on VP16, the “VP16 repression, fold change over DMSO” value stood at 0.75 fold change over DMSO. Besides, the “LXR activation, fold change over DMSO” value on LXR is 4 fold change over DMSO.
Regarding `OC(c1ccc(-c2ccc(CN3CCC(Nc4ccncc4)CC3)cc2)cc1)(C(F)(F)F)C(F)(F)F` [Compound 104, 1,1,1,3,3,3-Hexafluoro-2-(4′-((4-(pyridin-4-ylamino)piperidin-1-yl)methyl)-[1,1′-biphenyl]-4-yl)propan-2-ol], the remaining activity at 10 µM on GST-RORγ was determined as 20%. Also, the “RORα repression, fold change over DMSO” value at RORα came out at 0.9 fold change over DMSO. For the same compound, the “RORγ repression, fold change over DMSO” value at RORγ was 0.1 fold change over DMSO. For the same compound, the “VP16 repression, fold change over DMSO” value in the test with VP16 was found to be 0.4 fold change over DMSO. Further, at LXR, the “LXR activation, fold change over DMSO” value amounted to 1.1 fold change over DMSO.
For `OC(c1ccc(-c2ccc(CN3CCN(Cc4cncs4)CC3)cc2)cc1)(C(F)(F)F)C(F)(F)F` [Compound 114, 1,1,1,3,3,3-Hexafluoro-2-(4′-((4-(thiazol-5-ylmethyl)piperazin-1-yl)methyl)-[1,1′-biphenyl]-4-yl)propan-2-ol] the same measures were 50%, 0.79 fold change over DMSO, 0.87 fold change over DMSO, 0.92 fold change over DMSO and 0.63 fold change over DMSO.

For the origin of these results see patent publication US9586928B2 (The Scripps Research Institute, priority 2011, dated 2017).
